Assays:
[1] = Cytotoxicity against patient-derived human mononuclear cells assessed as cell growth inhibition incubated for 72 hrs by FMCA assay; type: toxicity, cell-based, Mononuclear cell line
[2] = test system: Ovarian cancer cell line; experiment: Anticancer activity against patient-derived human Ovarian tumor cells assessed as tumor growth inhibition incubated for 72 hrs by FMCA assay; type: functional, cell-based
[3] = Anticancer activity against patient-derived human Colorectal tumor cells assessed as tumor growth inhibition incubated for 72 hrs by FMCA assay; type: functional, cell-based; details: Colorectal cancer cell
[4] = Anticancer activity against patient-derived human CLL tumor cells assessed as tumor growth inhibition incubated for 72 hrs by FMCA assay; type: functional, cell-based; details: CLL cell
[5] = test system: Mahlavu; experiment: Cytotoxicity against human Mahlavu cells assessed as inhibition of cell viability incubated upto 72 hrs by MTT assay; type: functional, cell-based

`O=c1[nH]cc(F)c(=O)[nH]1` [FLUOROURACIL] gave an IC50 at 72 h [1] of 430 µM, an IC50 [2] of 563 µM and an IC50 [3] of 755 µM. The IC50 [4] was 658 µM.
`CCc1c2c(nc3ccc(OC(=O)N4CCC(N5CCCCC5)CC4)cc13)-c1cc3c(c(=O)n1C2)COC(=O)[C@]3(O)CC` [IRINOTECAN] gave an IC50 [2] of 75.3 µM and an IC50 [3] of 89.6 µM.
In the case of `CNC(=O)c1cc(Oc2ccc(NC(=O)Nc3ccc(Cl)c(C(F)(F)F)c3)cc2)ccn1` [SORAFENIB], the IC50 [5] is reported as 13.4 µM.

Reference: ChEMBL document CHEMBL5108035, “Acriflavine, an Acridine Derivative for Biomedical Application: Current State of the Art” (J Med Chem, 2022)
